Patent US9815878B2, “Use of PEDF-derived polypeptides for preventing and/or ameliorating skin aging” (MacKay Memorial Hospital, priority 2012, dated 2017)
No end group written: not given here.

Key:
[1] = Transdermal delivery of FITC-conjugated 29-mer ointment with or without microneedle patch, fluorescent microscopy of skin; format: in vivo, C57BL/6 mice; conditions: 24 hours later
Description: The Fluorescein (FITC)-conjugated 29-mer peptide was used to investigate the in vivo transdermal delivery of the present PEDF peptides.
First, the dorsal hair of 8-wk-old male C57BL/6 mice were removed using a melted wax/rosin mixture (1:1) under general anesthesia. On the next day, the ointment containing the FITC-conjugated 29-mer peptide (25 μM) was applied onto the dorsal skin of the mice, and then a microneedle patch (3M™ Microchannel Skin System; provided from 3M Singapore) was gently pressed against the dorsal skin so that the microneedles penetrated less than 100 microns into the skin (the FITC-29 mer/MN group). As to the control group (FITC-29 mer/CT), the mice received the ointment without subsequent microneedle treatment. Twenty-four hours later, the skin was harvested, fixed, cryosectioned and examined by fluorescent microscopy.
The H&E stained section in the left panel of FIG. 1 highlights the epidermis and dermis of the specimen. The fluorescence images in the middle and right panels of FIG. 1 illustrate the distribution of FITC-conjugated 29-mer across the skin.

[2] = test system: primary mouse dermal fibroblasts; assay: Dermal fibroblast proliferation in vitro, BrdU labeling assay; format: cell-based, C57BL/6 mouse; conditions: 24 hours; for BrdU/Vimentin Labeling Index (%): 50 nM peptide in 1% FBS medium, BrdU 2 hours
Description: (§1) Full-thickness skin tissue was obtained from the dorsum of C57BL/6 mouse. The subcutaneous tissue was carefully dissected from the skin and washed three times in sterile phosphate-buffered saline (PBS). The tissue was then cut into small pieces (1-2 mm^3). After being digested with 0.1% dispase at 4° C. overnight, the epidermal layers were removed, and the remaining dermal parts were further digested with 0.1% collagenase I at 37° C. for another 4 hours. The digested cells were then collected by centrifugation (400 g for 5 minutes) and resuspended in high-glucose DMEM supplemented with 10% FBS, 2 mM L-glutamine, and 1% penicillin-streptomycin antibiotic mixture. Cells were seeded onto tissue-culture plates (Falcon Labware; NJ, USA) at 1×10^3 cells/cm^2 and maintained at 37° C. with 5% CO2. After 24 hours, the medium was discarded to remove residual non-adherent cells, and cell culture was replenished with a fresh medium. For passage, near-confluent cells were harvested with 0.25% trypsin/EDTA.
After fixing with 4% paraformaldehyde, cells were exposed to cold methanol for 2 minutes, and then treated with 1 N HCl at room temperature for 1 hour before performing immunofluorescence staining.
BrdU-labeled DNA was detected by polyclonal anti-BrdU antibody and rhodamine-conjugated donkey anti-rabbit IgG. Nuclei were counterstained with Hoechst 33258 (blue).
Primary mouse dermal fibroblasts were isolated and cultured as described in the “Materials and Methods” section. The dermal fibroblast at passage 2 were seeded at gelatin-coated slide in a 6-well plate at a density of 2×10^5 cells per well and cultured in growth medium (DMEM 10% FBS) for 24 hours before being replaced by a basal growth medium with 1% FBS only (control group) or with 1% FBS plus an additional 50 nM of PEDF-derived peptide (i.e., 29-mer, 24-mer, 20-mer, 18-mer, Mo 29-mer, or Mo 20-mer) for 24 hours. For BrdU labeling assay, BrdU (final concentration, 10 μM) was added to the culture for 2 hours. The level of BrdU- and vimentin-double positive cells was expressed as the percentage of BrdU- and vimentin-double positive cells per total vimentin-positive cells (the BrdU/Vimentin Labeling Index), and the results were summarized in Table 2.

MMP-1 = assay: UVB-induced MMP-1 protein expression in WS-1 cells, western blotting; format: cell-based, human
Description: Human skin fibroblast WS-1 cell line was obtained from Food Industry Research and Development Institute (Hsin-Chu, Taiwan). The WS-1 cells were maintained in a 37° C., 5% CO2 humidified incubator as monolayers in culture flasks. They were grown in 10% FBS-DMEM supplemented with 2 mM L-glutamine, 0.1 mM non-essential amino acids, 1% penicillin/streptomycin. For passage, near-confluent cells were sub-cultured by 0.25% trypsin/EDTA.
Skin tissues were homogenized in ice-cold lysis buffer containing 20 mM HEPES (pH 7.4), 150 mM NaCl, 1% SDS, 1 mM ethylenediamine tetraacetic acid (EDTA), 5 mM phenylmethanesulfonyl fluoride (PMSF), and 1 mM dithiothreitol (DTT), 1% Triton X-100, with freshly added protease inhibitor cocktail (Roche, Indianapolis, Ind.). Homogenates were then centrifuged at 12,000 g for 30 minutes at 4° C., and supernatants were then collected and stored at −70° C. Protein contents in lysates were determined using the Bradford assay. Whole cell lysates were prepared using the above lysis buffer. Aliquots of the lysates were then resolved on a SDS-PAGE and then electrotransferred to polyvinylidene difluoride (PVDF) membranes (Millipore, Bedford, Mass., USA) and processed for immunoblot analysis.
Antibodies used in the immunoblot study included anti-type I collagen 1A1 antibody (1:1000 dilution), anti-MMP-1 antibody (1:500 dilution) and anti-β-actin antibody (1:10000 dilution). Proteins of interest were detected using the appropriate IgG-HRP secondary antibody and ECL reagent (Amersham, Arlington Heights, Ill., USA). X-ray films were scanned on a Model GS-700 Imaging Densitometer (Bio-Rad Laboratories, Hercules, Calif.) and analyzed using Labworks 4.0 software. For quantification, blots from at least three independent experiments were used.
WS-1 were seeded on a six-well plate at a density of 1×10^5 cells per well and grown in the 10% FBS-DMEM growth medium for 24 hours and then incubated with 1% FBS-DMEM supplemented with or without 100 nM PEDF peptide for further 24 hours. The cells were washed twice with phosphate buffered saline (PBS) and exposed to UVB radiation covered with PBS. The UVB treatment was conducted in a cell culture hood by using a UVB lamp (model XL-1000B, Spectrolinker™ Inc.) at a final dose of 15 mJ/cm^2 for about 100 seconds. Cell viability was assayed using trapan blue exclusion assay (>95%). After UVB irradiation, PBS was replaced with 1% FBS-DMEM with or without PEDF peptide for further 48 hours and then protein extracts were assayed by western blotting for the expression of MMP-1 protein. Cells that were not subjected to UVB irradiation were used as control (normal). The expression level of MMP-1 was normalized with the expression level in the Vehicle/UVB group (set to 100%), and quantitative results are summarized in Table 6.

MMP-13 = assay: UVB-induced MMP-13 mRNA expression in primary mouse dermal fibroblasts, RT-PCR; format: cell-based
Description: as §1
The total RNA was extracted from cells using the TRIzol (Invitrogen) and treated with RNase-free DNase I (Qiagen, Santa Clarita, Calif.) to remove genomic DNA and then purified with an RNA purification kit (Dynabeads; Invitrogen). 1 μg of total RNA retrieved from primary dermal fibroblast was reverse-transcribed into cDNA by 200 units of expand Reverse-Transcriptase (Roche, Mannheim, Germany) in 20 μl of reaction buffer containing 0.25 μg of random primers and 0.8 mM dNTPs at 42° C. for 1 hour. 2 μl of the cDNA was used for the PCR reaction as templates. PCR was performed in a 30 μl volume containing 15 μl of EconoTaq® PLUS GREEN 2× Master Mix (Lucigen® Corp.), 1 μM of each primer and 2 μl of template DNA. cDNA was synthesized in an 18-22 cycle amplification reaction (denaturation, 20 s, 94° C.; annealing, 30 s, 57° C.; and polymerization, 40 s, 72° C.). The number of cycles for the primer set was chosen to be in the linear range of amplification. The sequences of specific PCR primers were mouse MMP-13 (accession number: NM_008607) sense, […] (SEQ ID NO: 12); antisense, […] (SEQ ID NO: 13); PCR product: 201 bp; and mouse glyceraldehyde 3-phosphate dehydrogenase (GAPDH; accession number: M32599) sense, […] (SEQ ID NO: 14); and anti-sense, […] (SEQ ID NO: 15); PCR product: 223 bp.). The PCR products were electrophoresed in a 2% agarose gel containing ethidium bromide and visualized by UV illumination. The intensities of the PCR products were quantified densitometrically using a FUJI LAS-3000 system and Multi Gauge Ver. 1.01 software (Fujifilm, Tokyo, Japan).
Primary mouse dermal fibroblasts in passage 2 of monolayer cultures were incubated with 1% FBS-DMEM supplemented with or without 100 nM PEDF peptide for 24 hours, and then subjected to UVB irradiation as described above. After UVB irradiation, PBS was replaced with 1% FBS-DMEM with or without PEDF peptide for further 24 hours, and then cellular total RNAs were extracted for subsequent RT-PCR analysis. The expression level of MMP-13 mRNA was normalized with the expression level in the Vehicle/UVB group (set to 100%), and quantitative results are summarized in Table 7.

FITC-conjugated 29-mer: Fluorescein (FITC)-conjugated 29-mer peptide used to investigate in vivo transdermal delivery (SLGAEQRTESIIHRALYYDLISSPDIHGT; also: FITC conjugated, site not given here)
distribution of fluorescein signal across the skin (delivery to dermis) ([1]; ointment 25 μM on dorsal skin plus microneedle patch (FITC-29 mer/MN)): successfully delivered to the dermis
distribution of fluorescein signal across the skin (delivery to dermis) ([1]; ointment 25 μM on dorsal skin without microneedle treatment (FITC-29 mer/CT)): barely detectable in the dermis

SLGAEHRTESVIHRALYYDLITNPDIHST [Mo 29-mer, synthetic peptide derived from mouse PEDF]
BrdU/Vimentin Labeling Index (%) [2]: 11.1 ± 2.0 %

SLGAEQRTESIIHRALYYDLISSP [24-mer, synthetic peptide corresponding to residues 93-116 of human PEDF]
MMP-1 Expression Level (%) (MMP-1; 100 nM peptide 24 h before and 48 h after UVB 15 mJ/cm^2, Vehicle/UVB set to 100%): 48 ± 7.2 %
MMP-1 protein level relative to vehicle/UVB group (MMP-1; pre-incubation with peptide, UVB): about half
MMP-13 Expression Level (%) (MMP-13; 100 nM peptide 24 h before and 24 h after UVB 15 mJ/cm^2, mRNA, Vehicle/UVB set to 100%): 16.3 ± 1.5 %
effect on UVB-induced upregulation of MMP-13 (MMP-13; cells pretreated with peptide, UVB): substantially reduced
BrdU/Vimentin Labeling Index (%) [2]: 10.1 ± 1.9 %
proliferation relative to control medium ([2]; 50 nM peptide): about 5 fold

SLGAEHRTESVIHRALYYDL [Mo 20-mer, synthetic peptide derived from mouse PEDF]
BrdU/Vimentin Labeling Index (%) [2]: 11.3 ± 1.6 %
